Reference: patent publication EP1108710A1, “GUAIACOXYPROPANOLAMINES WITH ALPHA/BETA-ADRENERGIC BLOCKING ACTIVITY” (Cheng, Ing-Jun, priority 1998, dated 2000)
Read-outs that look alike come from different tables or passages of the source.

Tests used:
[1] = test system: Wistar rat's isolated; reserpine pretreated right atrium beating rate and left atrium isometric contractions; assay: Direct effect (intrinsic sympathomimetic activity) on reserpine-pretreated isolated atria
Method: Pharmacol 311, pp. 205-218 and pp 237-248 (1980). Wistar rats of weight between 200 ∼ 300 gm were used. 18 ∼ 24 hours before the experiment, 5mg/kg of reserpine was injected via abdominal cavity to remove all endogenous catecholamines. Prior experiment, Wistar rats were sacrificed, the heart was immediately removed and placed in Kreb's solution aerated with air mixture and maintained at room temperature. The right and left atria were carefully separated.

[2] = test system: guinea pig's isolated; reserpine pretreated tracheal; assay: Direct effect (tracheal relaxation, intrinsic sympathomimetic activity) on reserpine-pretreated isolated trachea, with and without ICI 118,551; details: cumulative administration 10^-10∼3x10^-6 M, reserpine pretreated
Method: Pharmacol 311, pp. 205-218 and pp.237-248 (1980). guinea pigs of weight between 350 ∼ 500 gm were used. 18 ∼ 24 hours before the experiment, 5mg/kg of reserpine was injected via abdominal cavity to remove all endogenous catecholamines. Prior experiment, guinea pigs were sacrificed, the tracheal was immediately removed and placed in Kreb's solution aerated with air mixture and maintained at room temperature of 22 ∼ 25°C. […] […] Then the tissue was repeatedly washed with Kreb's solution. After the tissue had been re-equilibrated for 60 minutes, ICI 118, 551 were administed. After treatment for 30 minutes, compound 1 of similar concentration was administered, and the intrinsic sympathomimetic activity of tracheal was observed.

β-adrenoreceptor (β1) = molecular target: T1, β-adrenoreceptor (β1) (Rattus norvegicus, UniProt P18090); assay: β-adrenoceptor blocking action on isolated spontaneously beating right atrium (L-isoproterenol-induced heart rate increase, Schild plot); parameters: species or system Wistar rat; details: from the average pA2 difference between right atrium and tracheal
T1 construct: The right and left atria were then separated; from tissue; host or cells: isolated rat right and left atria
T1 sequence (P18090 whole entry): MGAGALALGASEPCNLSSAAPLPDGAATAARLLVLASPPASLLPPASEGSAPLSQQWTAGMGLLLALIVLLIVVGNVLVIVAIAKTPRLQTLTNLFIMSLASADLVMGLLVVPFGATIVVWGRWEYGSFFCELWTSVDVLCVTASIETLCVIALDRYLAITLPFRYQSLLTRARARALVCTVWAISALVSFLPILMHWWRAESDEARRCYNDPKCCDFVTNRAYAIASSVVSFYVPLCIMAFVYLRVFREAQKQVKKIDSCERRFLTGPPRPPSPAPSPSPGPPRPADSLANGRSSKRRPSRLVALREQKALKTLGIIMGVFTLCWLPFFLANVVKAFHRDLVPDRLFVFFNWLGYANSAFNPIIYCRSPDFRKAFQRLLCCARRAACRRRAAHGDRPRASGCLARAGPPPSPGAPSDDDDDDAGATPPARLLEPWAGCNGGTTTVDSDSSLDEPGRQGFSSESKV
Method: The right and left atria were then separated. The spontaneously-beating right atria was clipped on both end by heart shaped clips, where one end was fixed at the bottom of 10ml of tissue bath made of physiological saline solution, and temperature maintained at 37°C. The other end of the atria was connected to a force transducer, and isometric contractions and beating rate of the right atria were recorded by COULBOURN AT-High-Speed VideoFigure. […] Cumulative administration interval was when the previous concentration reached its greatest effect, the next concentration would be immediately given.

[3] = test system: Wistar rat's isolated thoracic aorta; assay: Isolated thoracic aorta contraction caused by 75mM KCl
Method: After sacrificing Wistar rat of weight between 300 - 500 gm, the thoracic aorta was immediately removed and placed in cold Kreb's solution. The fatty connecting tissue surrounding the vessel wall was removed and the thoracic aorta was cut into rings of length 5 mm. The two ends of each ring was pieced and fixed with "Z" shaped platinum wires. […] When the results had been recorded for at least 35 minutes, the aorta was repeatedly rinsed with normal Kreb's solution. […] 30 minutes later, 75mM KCl was added again to induce vasoconstriction.

normotensive rats = assay: Heart rate and blood pressure in living (anaesthetized) rat, intravenous injection; assay type: in vivo, Wistar rats; details: lmg/kg; via femoral vein, rats
From the text: Male Wistar rats, weighing 200 ∼ 300g were abdominal anaesthetized with pentobarbital sodium. Tracheal was cannulated to maintain normal respiration. Polyethylene tube was inserted into the left femoral vein to facilitate drug administration. A 3-way stopcock was used, with one end connected to a syringe for drug injection, while the other end was connected to the syringe filled with physiological saline. The latter was used to prevent residual drugs in the polyethylene tube after injection, which would affect experimental accuracy.
The right femoral artery was also inserted with polyethylene, and a 3-way stopcock was used tool, where one end was connected to heparin solution to prevent embolism. The other end was connected to a Disposable Diaphragm Dome, TA1019, and linked to a transducer. Through an amplifier, a recorder recorded the overall and average arterial pressure; heart rate to evaluate the effect of drug on blood pressure and heart rate.

[4] = 10^-8M, thoracic aorta contraction caused by 75mM KCl

## CC(C)NCC(O)COc1ccc(CC(N)=O)cc1 (stereo not shown) [ATENOLOL]
[1]; 3x10-4M
  atrial blocking effect: almost does not have atrial blocking effect

## CC(C)NC[C@H](O)c1ccc(O)c(O)c1 [L-isoproterenol]
[2]
  tracheal relaxation effect: dose-dependant tracheal relaxation effect

## CC(C)NCC(O)COc1cccc2ccccc12 (stereo not shown) [PROPRANOLOL]
[2]
  tracheal relaxation effect: did not produce any relaxation effect
[1]; 10^-4∼10^-3 M
  direct effect on atrial tissue: could inactivate or unexcited the tissue
[1]; cumulative administration, reserpine pretreated
  direct effect on right atrium beating rate and left atrium isometric contractions: could retard the beating rate and isometric contractions

## COc1cc(C=O)ccc1OCC(O)CNC(C)(C)C (stereo not shown) [VANIDILOL, reference compound]
[2]
  tracheal relaxation effect: dose-dependant tracheal relaxation effect
β-adrenoreceptor (β1)
  selectivity ratio of β1 type adrenoceptor (effect on right atrium relative to tracheal): 0.98 X

## COC(=O)C1=C(C)NC(C)=C(C(=O)OC)C1c1ccc(OCC(O)CNCCOc2ccccc2OC)c(OC)c1 (stereo not shown) [compound 2, 4-{{N-{4-[2-hydroxy-3-(2-methoxy-1-oxyethyl-aminobenzene)propoxy]-3-methoxy}phenyl}}-2,6-dimethyl-3,5-dicarbo-methoxy-1,4-dihydropyridine]
[3]; [4]
  Aorta Relaxation: 40± 4%
Normotensive rats
  Lowering of Blood Pressure: 75± 2 mm Hg
  Reduction of Heart Rate: 35± 4 beats/min

## CCOC(=O)C1=C(C)NC(C)=C(C(=O)OCC)C1c1ccc(OCC(O)CNCCOc2ccccc2OC)c(OC)c1 (stereo not shown) [compound 3, 4-{{N-{4-[2-hydroxy-3-(2-methoxy-1-oxyethyl-aminobenzene)propoxy]-3-methoxy}phenyl}}-2,6-dimethyl-3,5-dicarboethoxy-1,4-dihydropyridine]
[3]; [4]
  Aorta Relaxation: 41± 2%
Normotensive rats
  Lowering of Blood Pressure: 78± 5 mm Hg
  Reduction of Heart Rate: 37± 5 beats/min

## CCOC(=O)C1=C(C)NC(C)=C(C(=O)OCC)C1c1cc(Cl)ccc1OCC(O)CNC(C)(C)C (stereo not shown) [compound 4]
[3]; [4]
  Aorta Relaxation: 35± 5%
Normotensive rats
  Lowering of Blood Pressure: 76± 6 mm Hg
  Reduction of Heart Rate: 33± 3 beats/min

## CCCCNCC(O)COc1ccc(Cl)cc1C1C(C(=O)OCC)=C(C)NC(C)=C1C(=O)OCC (stereo not shown) [compound 5]
[3]; [4]
  Aorta Relaxation: 33± 2%
Normotensive rats
  Lowering of Blood Pressure: 74± 4 mm Hg
  Reduction of Heart Rate: 32± 4 beats/min

## CCOC(=O)C1=C(C)NC(C)=C(C(=O)OCC)C1c1cc(Cl)ccc1OCC(O)CNCCOc1ccccc1OC (stereo not shown) [compound 6]
[3]
  Aorta Relaxation: 45± 4%
Normotensive rats
  Lowering of Blood Pressure: 80± 3 mm Hg
  Reduction of Heart Rate: 35± 5 beats/min

## CCOC(=O)C1=C(C)NC(C)=C(C(=O)OCC)C1c1ccc(OCC(O)CNCCOc2ccccc2OC)c(Cl)c1 (stereo not shown) [compound 7, 4-{{N-{4-[2-hydroxy-3-(2-methoxy-1-oxyethylaminobenzene)propoxy]-3-choloro}phenyl}}-2,6-dimethyl-3,5-dicarbo-ethoxy-1,4-dihydropyridine]
[3]; [4]
  Aorta Relaxation: 45± 5%
Normotensive rats
  Lowering of Blood Pressure: 82± 6 mm Hg
  Reduction of Heart Rate: 40± 2 beats/min

## CCOC(=O)C1=C(C)NC(C)=C(C(=O)OCC)C1c1cc([N+](=O)[O-])ccc1OCC(O)CNC(C)(C)C (stereo not shown) [compound 8]
[3]; [4]
  Aorta Relaxation: 43± 3%
Normotensive rats
  Lowering of Blood Pressure: 80± 3 mm Hg
  Reduction of Heart Rate: 40± 4 beats/min

## CCOC(=O)C1=C(C)NC(C)=C(C(=O)OCC)C1c1cc([N+](=O)[O-])ccc1OCC(O)CNCCOc1ccccc1OC (stereo not shown) [compound 9]
[3]; [4]
  Aorta Relaxation: 47± 2%
Normotensive rats
  Lowering of Blood Pressure: 85± 6 mm Hg
  Reduction of Heart Rate: 40± 5 beats/min
